These results are taken from PubChem BioAssay AID1259407 (Chemical Carcinogenesis Research Information System (CCRIS), 2018).

The source made the active and inactive calls. The rule behind the calls is not given here.

The subject of this data set is CCRIS mutagenicity, Ames/micronucleus/aberration tests. Put plainly: CCRIS mutagenicity studies.
The mark [1] stands for this setting: Test System: AMES SALMONELLA TYPHIMURIUM, Strain/Indicator: TA98, Metabolic Activation: NONE, Method: PREINCUBATION

Take `O=[N+]([O-])c1ccc2c(c1)sc1ccccc12`: the mutagenic call is “active; positive” (Test System: AMES SALMONELLA TYPHIMURIUM, Strain/Indicator: TA98(1,8-DNP6), Metabolic Activation: NONE, Method: PREINCUBATION); “active; positive” (Test System: AMES SALMONELLA TYPHIMURIUM, Strain/Indicator: TA98(NR), Metabolic Activation: NONE, Method: PREINCUBATION); “active; positive” (Test System: AMES SALMONELLA TYPHIMURIUM, Strain/Indicator: TA98(NR), Metabolic Activation: RAT LIVER S-9, 3-METHYLCHOLANTHRENE (10%), Method: PREINCUBATION); “active; positive” under setting [1].
As for `O=CNNc1nc(-c2ccc([N+](=O)[O-])o2)cs1`, the mutagenic call was “active; positive” (Test System: AMES SALMONELLA TYPHIMURIUM, Strain/Indicator: TA100, Metabolic Activation: RAT, LIVER, S-9, KC500 OR PHENOBARBITAL, Method: LIQUID SUSPENSION); “active; positive” (Test System: E. COLI, Strain/Indicator: WP2, Metabolic Activation: NONE, Method: SPOT); “active; positive” (Test System: E. COLI, Strain/Indicator: WP2 UVRA, Metabolic Activation: NONE, Method: SPOT).
Regarding `[O-][n+]1ccc2cnncc2c1`, the mutagenic call was “active; positive” under setting [1]; “active; positive” (Test System: AMES SALMONELLA TYPHIMURIUM, Strain/Indicator: TA98, Metabolic Activation: RAT, LIVER, S-9, PCB, Method: PREINCUBATION); “inactive; negative” (Test System: AMES SALMONELLA TYPHIMURIUM, Strain/Indicator: TA100, Metabolic Activation: NONE, Method: PREINCUBATION); “active; positive” (Test System: AMES SALMONELLA TYPHIMURIUM, Strain/Indicator: TA100, Metabolic Activation: RAT, LIVER, S-9, PCB, Method: PREINCUBATION).
`O=[N+]([O-])c1cccc(-c2ccccc2)c1O`: the mutagenic call under setting [1] is “inactive; negative”.
